Test results taken from BindingDB's records for doi:10.7270/Q2M32T6M (Vanderbilt Screening Center for GPCRs, Ion Channels and …, 2009).
Non-standard residues stand in square brackets, D forms with d. Residues, ends and D or L forms follow the SMILES beside them. ξ: configuration not given here. *: point of attachment. ξF = NC(Cc1ccccc1)C(=O)O; Cbz = O=C(OCc1ccccc1)*

Molecular target: T1, Solute carrier family 12 member 5 (Homo sapiens, UniProt Q9H2X9)
T1 sequence (Q9H2X9 whole entry): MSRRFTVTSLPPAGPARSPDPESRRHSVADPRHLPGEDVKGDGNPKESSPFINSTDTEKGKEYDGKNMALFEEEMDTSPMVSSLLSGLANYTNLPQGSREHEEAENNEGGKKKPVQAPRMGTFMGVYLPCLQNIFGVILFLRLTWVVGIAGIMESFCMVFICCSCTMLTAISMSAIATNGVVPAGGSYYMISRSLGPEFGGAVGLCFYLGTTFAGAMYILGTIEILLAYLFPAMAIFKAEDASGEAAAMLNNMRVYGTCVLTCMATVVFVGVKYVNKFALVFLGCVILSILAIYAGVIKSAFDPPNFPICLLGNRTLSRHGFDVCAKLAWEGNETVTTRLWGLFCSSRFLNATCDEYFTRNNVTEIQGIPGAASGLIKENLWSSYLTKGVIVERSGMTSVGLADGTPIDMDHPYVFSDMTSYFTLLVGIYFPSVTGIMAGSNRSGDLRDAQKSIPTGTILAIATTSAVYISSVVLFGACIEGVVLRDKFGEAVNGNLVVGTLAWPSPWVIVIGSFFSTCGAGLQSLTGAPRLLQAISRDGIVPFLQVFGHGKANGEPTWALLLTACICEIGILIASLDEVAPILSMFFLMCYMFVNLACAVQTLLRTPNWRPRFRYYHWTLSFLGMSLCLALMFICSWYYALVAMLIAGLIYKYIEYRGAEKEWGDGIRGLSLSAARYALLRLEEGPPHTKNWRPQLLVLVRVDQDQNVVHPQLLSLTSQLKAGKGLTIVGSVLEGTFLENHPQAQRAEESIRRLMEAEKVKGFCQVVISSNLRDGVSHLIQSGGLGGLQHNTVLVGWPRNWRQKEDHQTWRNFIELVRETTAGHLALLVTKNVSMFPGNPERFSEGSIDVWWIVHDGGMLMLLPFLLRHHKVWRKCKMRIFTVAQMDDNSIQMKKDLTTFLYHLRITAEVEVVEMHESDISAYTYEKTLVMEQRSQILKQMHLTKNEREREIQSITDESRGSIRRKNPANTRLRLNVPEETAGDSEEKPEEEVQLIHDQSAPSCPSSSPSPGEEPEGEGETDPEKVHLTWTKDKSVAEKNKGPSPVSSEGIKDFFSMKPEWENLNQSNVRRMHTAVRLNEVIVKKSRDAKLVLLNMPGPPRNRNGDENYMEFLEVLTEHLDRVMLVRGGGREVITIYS
Test: concentration-response of KCC2 transport modulators – cell-based, HEK293 KCC2, FluoZin-2 fluorescence, dose response (AID 1736)

[1] = inactive by the depositor's call

Compound	EC50 [µM]	EC50 [1] [µM]
CC1CCCCN1C(=O)CSc1ccc(-c2ccc(F)cc2)nn1 (stereo not drawn) [2-[6-(4-Fluoro-phenyl)-pyridazin-3-ylsulfanyl]-1-(2-methyl-piperidin-1-yl)-ethanone]	3.78	
CC1CCN(C(=O)CSc2ccc(-c3ccc(F)cc3)nn2)CC1 [2-[6-(4-Fluoro-phenyl)-pyridazin-3-ylsulfanyl]-1-(4-methyl-piperidin-1-yl)-ethanone]	4.35	
Cc1ccc(NC(=O)CSc2ccc(-c3ccco3)nn2)cc1 [2-[6-(furan-2-yl)pyridazin-3-yl]sulfanyl-N-(4-methylphenyl)acetamide]	4.55	
N#Cc1nc(COc2ccccc2F)oc1NCc1ccc(F)cc1 [2-[(2-fluoranylphenoxy)methyl]-5-[(4-fluorophenyl)methylamino]-1,3-oxazole-4-carbonitrile]		1.86
Cc1[nH]c2ccccc2c1SCC(=O)N1CCN(c2ccccc2)CC1 [2-[(2-methyl-1H-indol-3-yl)thio]-1-(4-phenyl-1-piperazinyl)ethanone]	5.46	
Cc1ccc(/C=C2/Sc3ccccc3N(CC(=O)NCCCOC(C)C)C2=O)cc1 [2-[(2E)-2-[(4-methylphenyl)methylidene]-3-oxidanylidene-1,4-benzothiazin-4-yl]-N-(3-propan-2-yloxypropyl)ethanamide]	21.1	
O=C(CSc1nc2cc(Cl)ccc2s1)Nc1cccc(S(=O)(=O)N2CCOCC2)c1 [2-[(5-chloranyl-1,3-benzothiazol-2-yl)sulfanyl]-N-(3-morpholin-4-ylsulfonylphenyl)ethanamide]		25.1
Cc1ccc(NC(=O)c2ccccc2NS(=O)(=O)c2ccc(Cl)s2)cc1 [2-[(5-chloranylthiophen-2-yl)sulfonylamino]-N-(4-methylphenyl)benzamide]	1.07	
N#Cc1c(NC(=O)CSc2nc(N)cc(=O)[nH]2)sc2c1CCCCCC2 [2-[(6-amino-4-oxo-1H-pyrimidin-2-yl)sulfanyl]-N-(3-cyano-4,5,6,7,8,9-hexahydrocycloocta[b]thiophen-2-yl)acetamide]	233	
Cc1ccc(Cn2c(SCC(=O)Nc3cc(C)on3)nc3ccccc3c2=O)cc1 [2-[[4-keto-3-(4-methylbenzyl)quinazolin-2-yl]thio]-N-(5-methylisoxazol-3-yl)acetamide]	65.1	
N#CC1=C(SCc2ccccc2)N=C(N)C(C#N)C12CCCCC2 (stereo not drawn) [2-azanyl-4-(phenylmethylsulfanyl)-3-azaspiro[5.5]undeca-1,4-diene-1,5-dicarbonitrile]	11.9	
N=C1SCC(=O)N1c1ncc(Cc2cccc(Cl)c2)s1 [2-azanylidene-3-[5-[(3-chlorophenyl)methyl]-1,3-thiazol-2-yl]-1,3-thiazolidin-4-one]		3.13
Cc1ccc(-c2csc(NC(=O)CCNC(=O)c3ccccc3Cl)n2)cc1 [2-chloranyl-N-[3-[[4-(4-methylphenyl)-1,3-thiazol-2-yl]amino]-3-oxidanylidene-propyl]benzamide]	2.03	
O=C(NC(=S)Nc1nc(-c2cccc([N+](=O)[O-])c2)cs1)c1ccccc1Cl [2-chloranyl-N-[[4-(3-nitrophenyl)-1,3-thiazol-2-yl]carbamothioyl]benzamide]	7.48	
C=CCN(c1ccc(OC)cc1)S(=O)(=O)c1ccc(Cl)c(C(=O)OCC(=O)NC2CC2)c1 [2-chloro-5-[(4-methoxyphenyl)-prop-2-enylsulfamoyl]benzoic acid [2-(cyclopropylamino)-2-oxoethyl] ester]		6.31
c1coc(CNc2nc3nonc3nc2NCc2ccco2)c1 [2-furfuryl-[5-(2-furfurylamino)furazano[3,4-b]pyrazin-6-yl]amine]		43.7
Cc1cc([N+](=O)[O-])ccc1NCc1ccccc1 [2-methyl-4-nitro-N-(phenylmethyl)aniline]	3.75	
O=C(C1CCN(S(=O)(=O)c2cccc3nsnc23)CC1)N1CCc2ccccc2C1 [2-{[1-(2,1,3-benzothiadiazol-4-ylsulfonyl)piperidin-4-yl]carbonyl}-1,2,3,4-tetrahydroisoquinoline]	23.8	
Cc1noc(/C=C/c2ccco2)c1S(=O)(=O)N1CCC(C(=O)N2CCc3ccccc3C2)CC1 [2-{[1-({5-[(E)-2-(2-furyl)vinyl]-3-methylisoxazol-4-yl}sulfonyl)piperidin-4-yl]carbonyl}-1,2,3,4-tetrahydroisoquinoline]	3.86	
COc1cc(OC)c(C2=NOC(C(=O)N3CCc4ccccc4C3)C2)cc1Cl (stereo not drawn) [2-{[3-(5-chloro-2,4-dimethoxyphenyl)-4,5-dihydro-5-isoxazolyl]carbonyl}-1,2,3,4-tetrahydroisoquinoline]	5.55	
O=C(C1CCN(S(=O)(=O)c2cccs2)CC1)N1CCc2ccccc2C1 [3,4-dihydro-1H-isoquinolin-2-yl-(1-thiophen-2-ylsulfonyl-4-piperidinyl)methanone]	2650	
O=C(C1CCN(c2nnc(-n3cccc3)s2)CC1)N1CCc2ccccc2C1 [3,4-dihydro-1H-isoquinolin-2-yl-[1-(5-pyrrol-1-yl-1,3,4-thiadiazol-2-yl)-4-piperidyl]methanone]	9.6	
CC12CC3(C)CC(C)(C1)CC(C(=O)NC(=S)N1CCCC1)(C2)C3 [3,5,7-trimethyl-N-pyrrolidin-1-ylcarbothioyl-adamantane-1-carboxamide]	0.541	
CCCCCC(=O)Cc1cc(O)cc2c1C(=O)Oc1cc(O)c(C(=O)O)c(CCCCC)c1O2 [3,8-Dihydroxy-11-oxo-1-(2-oxo-heptyl)-6-pentyl-11H-dibenzo[b,e][1,4]dioxepine-7-carboxylic acid]	8.19	
Cc1cc(C(=O)COC(=O)CCc2nc3ccccc3s2)c(C)n1C [3-(1,3-benzothiazol-2-yl)propanoic acid [2-oxo-2-(1,2,5-trimethyl-3-pyrrolyl)ethyl] ester]	1.94	
Cc1ccc(/C=C2\SC(=S)N(c3c(C)n(C)n(-c4ccccc4)c3=O)C2=O)cc1 [3-(1,5-dimethyl-3-oxo-2-phenyl-2,3-dihydro-1H-pyrazol-4-yl)-5-(4-methylbenzylidene)-2-thioxo-1,3-thiazolidin-4-one]	2.3	

The remaining lines, values ahead:

EC50 [µM]	EC50 [1] [µM]	Compound
7.75		CCC(Cc1ccccc1)NC(=O)CN(C)S(=O)(=O)c1ccc2c(c1)c(=O)n(C)c(=O)n2C (stereo not drawn) [2-[(1,3-dimethyl-2,4-dioxo-6-quinazolinyl)sulfonyl-methylamino]-N-(1-phenylbutan-2-yl)acetamide]
11.9		COc1ccc(S(=O)(=O)N(CCc2ccccc2)CC(=O)O)cc1Cl [2-[(3-chloranyl-4-methoxy-phenyl)sulfonyl-(2-phenylethyl)amino]ethanoic acid]
0.717		O=C(NCCOc1ccccc1F)c1ccccc1SCc1ccc(F)cc1 [2-[(4-fluorobenzyl)thio]-N-[2-(2-fluorophenoxy)ethyl]benzamide]
2.16		CCOC(=O)CNC(=O)C(Cc1ccccc1)NC(=O)OCc1ccccc1 (stereo not drawn) [2-[[1-oxo-3-phenyl-2-(phenylmethoxycarbonylamino)propyl]amino]acetic acid ethyl ester] (Cbz-[ξF]-Gly-OEt)
8.09		Cc1ccccc1-c1nc(C[S+]([O-])CC(=O)NCc2ccccc2)c(C)o1 (stereo not drawn) [2-[[5-methyl-2-(2-methylphenyl)-1,3-oxazol-4-yl]methylsulfinyl]-N-(phenylmethyl)ethanamide]
110		Cc1ccccc1-c1nc(CS(=O)(=O)CC(=O)NCc2ccccc2)c(C)o1 [2-[[5-methyl-2-(2-methylphenyl)-1,3-oxazol-4-yl]methylsulfonyl]-N-(phenylmethyl)ethanamide]
24.6		COc1ccc(-c2cc(CNC(=O)CN(C)Cc3ccccc3)on2)cc1 [2-[benzyl(methyl)amino]-N-[[3-(4-methoxyphenyl)-1,2-oxazol-5-yl]methyl]acetamide]
13.7		CC(=O)NC(C)C(=O)OCC(=O)c1ccc(-c2ccccc2)cc1 (stereo not drawn) [2-acetamidopropanoic acid [2-oxo-2-(4-phenylphenyl)ethyl] ester]
0.384		CN(Cc1ccccc1)S(=O)(=O)c1ccc(Cl)c(C(=O)NCCc2ccccn2)c1 [2-chloranyl-5-[methyl-(phenylmethyl)sulfamoyl]-N-(2-pyridin-2-ylethyl)benzamide]
4.22		COc1ccccc1C(=O)NC1CCN(C(=S)NCCc2ccccc2)CC1 [2-methoxy-N-[1-(2-phenylethylcarbamothioyl)piperidin-4-yl]benzamide]
	61.2	CC1=C(C(=O)OCCOc2ccccc2)C(c2ccsc2)NC(=O)N1C (stereo not drawn) [2-phenoxyethyl 3,4-dimethyl-2-oxo-6-thiophen-3-yl-1,6-dihydropyrimidine-5-carboxylate]
432		Cc1ccccc1OCC(=O)NNC(=O)CCN1C(=O)c2ccccc2C1=O [3-(1,3-dioxo-2-isoindolyl)-N'-[2-(2-methylphenoxy)-1-oxoethyl]propanehydrazide]
